Results published in patent publication US20140287036A1, “SOFT-GELATIN CAPSULE FORMULATION” (SUCAMPO AG, priority 2006, published 2014).

Experiments:
Format in all cases: physicochemical
[1] = Storage stability of compound 1 solution (240 μg/g) in a vehicle at 55° C., HPLC assay; details: percentage of theoretical amount (240 μg/g); for concentration of compound 1, day 10: 55° C., 10 days
Experimental: Compound 1 was dissolved in a vehicle shown in table 1 below to give 240 μg/g solution (sample). The precise concentration of compound 1 in the sample was determined by means of HPLC (day 0). Then, the sample was put in a hard grass container and kept at 55° C. for 10 days, and then the precise concentration of the compound 1 in the sample was determined by means of HPLC (day 10).
The determination of the concentration of the compound in the sample was carried out as follows. About 0.2 g of the sample was mixed with exactly 2 ml of internal standard solution and then with a dissolving agent shown in Table 1 to give 5 mL of sample solution. About 12 mg of the reference standard compound 1 was weighted precisely and added with acetonitrile to give exactly 100 ml solution. Exactly 0.8 ml of the solution was obtained and added with exactly 4 ml of the internal standard solution, and then added with the dissolving agent to give 10 ml of standard solution.
The fluorescent labeling agent was added to the respective solution, stirred and stood at room temperature. Then, respective solution in an amount that theoretically gives 3.6 ng of compound 1 was loaded on the column and analyzed under the condition as follows:
Column: 5 mm×25 cm stainless steel column packed with octadecylsilane treated silica gel for HPLC (5 μm)
Mobile phase: mixture of acetonitrile HPLC grade: methanol HPLC grade: ammonium acetate (0.05 mol/L)
Detector: spectrophotofluorometer

[2] = Stability of compound 1/MCT solution (60 μg/g) kept with gelatin piece at 40° C. for 21 days; details: MCT solution, percentage of theoretical amount (60 μg/g)
Experimental: One hundred (100) parts by weight of gelatin (type A, high bloom, SKW Biosystems #195F) and 35 parts by weight of a plasticizer shown in Table 2 were mixed in water and dried to give gelatin piece. Compound 1 was dissolved in medium chain fatty acid triglyceride (USP/NF grade) to give a liquid mixture comprising 60 μg/g of the compound. 0.5 g of the liquid mixture and 0.5 g of each gelatin piece were put together in a sealed container and kept at 40° C. for 21 days. Then, the concentration of compound 1 contained in the liquid mixture was determined in the same manner as Reference Example 1.

[3] = Stability of soft gelatin capsule of compound 1 at 40° C.; details: MCT fill 240 μg/g; for conc. (% of Initial) 40° C. 2 mo: 2 months; for conc. (% of Initial) 40° C. 3 mo: 3 months
Experimental: Sugar alcohol solution derived from corn starch in an amount shown in Table 3 was added in an appropriate amount of water, stirred and heated. Then, gelatin 100 parts by weight was added thereto to give gelatin solution. Compound 1 was dissolved in medium chain fatty acid triglyceride (USP/NF grade) to give a fill solution containing 240 μg/g of compound 1. The gelatin solution and the liquid mixture were loaded on capsule forming and filling machine to give capsule containing the fill solution therein, and the capsule was dried to give soft gelatin capsule.
The capsule was put in a sealed container and kept at 40° C. for 3 months. The concentration of compound 1 in the fill solution contained in the capsule was determined after 1, 2 and 3 months storage in the same manner as Reference Example 1.

[4] = vehicle polyethylene glycol 400
[5] = capsule shell gelatin 100 / sugar alcohol solution 35 parts by weight
[6] = capsule shell gelatin 100 / sugar alcohol solution 45 parts by weight
[7] = capsule shell gelatin 100 / sugar alcohol solution 55 parts by weight

- concentration of compound 1, day 10 ([1]; vehicle glycerin): 78.0%
- concentration of compound 1, day 0 ([1]; vehicle glycerin): 92.0%
- concentration of compound 1, day 10 ([1]; vehicle hydrogenated maltose starch syrup): 24.4%
- concentration of compound 1, day 10 [1, 4]: 90.1%
- concentration of compound 1, day 0 [1, 4]: 98.2%
- concentration of compound 1, day 10 ([1]; vehicle propylene glycol): 88.6%
- concentration of compound 1, day 0 ([1]; vehicle propylene glycol): 97.8%
- concentration of compound 1, day 10 ([1]; vehicle sugar alcohol solution derived from corn starch (Polysorb 85/70/00)): 26.2%
- concentration of compound 1 after storage ([2]; gelatin piece with glycerin plasticizer (water content 23%)): 86.8%
- concentration of compound 1 after storage ([2]; gelatin piece with sugar alcohol solution derived from corn starch as plasticizer (water content 25%)): 92.0%
- conc. (% of Initial) 40° C. 1 mo ([3]; capsule shell gelatin 100 / sugar alcohol solution 35 parts by weight, 1 month): 99.9%
- conc. (% of Initial) 40° C. 2 mo [3, 5]: 100.3%
- conc. (% of Initial) 40° C. 3 mo [3, 5]: 99.2%
- conc. (% of Initial) 40° C. 2 mo [3, 6]: 100.5%
- conc. (% of Initial) 40° C. 3 mo [3, 6]: 100.0%
- conc. (% of Initial) 40° C. 2 mo [3, 7]: 99.3%
- conc. (% of Initial) 40° C. 3 mo [3, 7]: 100.0%
Compound: CCCCC(F)(F)[C@@]1(O)CC[C@H]2[C@@H](CC(=O)[C@@H]2CCCCCCC(=O)O)O1 [compound 1, 7-[(2R,4aR,5R,7aR)-2-(1,1-difluoropentyl)-2-hydroxy-6-oxooctahydrocyclopenta[b]pyran-5-yl]heptanoic acid]
